Measured values as given in patent US11351168B1 (Celgene CAR LLC, priority 2008, dated 2022).

What was measured:
[1] = tested on: BTK kinase activity (PLCγ2 phosphorylation) in Ramos cells; test: Washout experiment with Ramos cells; type: cell-based, human; details: 100 nM compound for 1 hour, then washout
Protocol: Washout Experiment with Ramos Cells
Ramos cells were serum starved for one hour in RPMI media+1% glutamine at 37° C. After starvation, Ramos cells were treated with 100 nM compound diluted in serum free RPMI media for 1 hour. After compound treatment, the media was removed and cells were washed with compound-free media. Subsequently, Ramos cells were washed every 2 hours and resuspended in fresh compound-free media. Cells were collected at specified timepoints, treated with 1 ug anti-human IgM (Southern Biotech cat #2022-01) for 10 minutes on ice to induce BCR signaling and then washed in PBS. Ramos cells were then lysed in Cell Extraction Buffer (Invitrogen FNN0011) supplemented with Roche complete protease inhibitor tablets (Roche 11697498001) and phosphatase inhibitors (Roche 04 906 837 001) and 18 ug total protein lysate was loaded in each lane. Inhibition of BTK kinase activity was assayed by measuring its substrate (PLCγ2) phosphorylation by western blot with phospho-specific antibodies from Cell Signaling Technologies cat #3871. The results of this experiment with compounds I-2, I-4 and I-7 are depicted in FIGS. 1, 2 and 3.

TEC kinase = TEC kinase (Homo sapiens (Human), UniProt P42680); test: Mass spectrometry for TEC kinase (tryptic digest); type: binding; details: 3 hrs at 10× excess, tryptic digestion
Sequence of TEC kinase (P42680 whole entry): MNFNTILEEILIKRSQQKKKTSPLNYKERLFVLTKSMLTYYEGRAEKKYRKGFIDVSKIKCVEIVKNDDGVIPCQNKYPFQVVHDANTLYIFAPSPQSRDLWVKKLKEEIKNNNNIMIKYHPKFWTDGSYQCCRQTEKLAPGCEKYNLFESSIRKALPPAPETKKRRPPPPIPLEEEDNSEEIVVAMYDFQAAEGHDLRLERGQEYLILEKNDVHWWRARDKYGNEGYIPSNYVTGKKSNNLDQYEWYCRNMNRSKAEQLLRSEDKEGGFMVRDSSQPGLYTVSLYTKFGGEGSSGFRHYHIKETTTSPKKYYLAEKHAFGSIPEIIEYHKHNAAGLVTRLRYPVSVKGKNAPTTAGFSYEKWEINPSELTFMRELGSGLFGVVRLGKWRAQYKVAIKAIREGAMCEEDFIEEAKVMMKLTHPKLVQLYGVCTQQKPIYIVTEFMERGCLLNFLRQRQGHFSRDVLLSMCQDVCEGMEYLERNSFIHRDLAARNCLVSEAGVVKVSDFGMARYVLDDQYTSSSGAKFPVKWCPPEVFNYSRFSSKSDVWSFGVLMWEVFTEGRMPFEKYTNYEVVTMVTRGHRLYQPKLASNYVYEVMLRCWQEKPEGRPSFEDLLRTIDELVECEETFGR
Protocol: Mass Spectrometry for TEC Kinase (Compound I-2)
TEC kinase (45 pmols; Invitrogen) was incubated with (I-2) (450 pmols) for 3 hrs at 10× excess prior to tryptic digestion. Iodoacetamide was used as the alkylating agent after compound incubation. […] For tryptic digests a 5 ul aliquot (7.5 pmols) was diluted with 15 ul of 0.1% TFA prior to micro C18 Zip Tipping directly onto the MALDI target using alpha cyano-4-hydroxy cinnamic acid as the matrix (5 mg/ml in 0.1% TFA:Acetonitrile 50:50).
(§1) For tryptic digests the instrument was set in Reflectron mode with a pulsed extraction setting of 2200. Calibration was done using the Laser Biolabs Pep Mix standard ([…], 1296.69, 1672.92, 2093.09, 2465.20). For CID/PSD analysis the peptide was selected using cursors to set ion gate timing and fragmentation occurred at a laser power about 20% higher and He was used as the collision gas for CID. Calibration for fragments was done using the P14R fragmentation calibration for the Curved field Reflectron.
TEC kinase (45 pmols; Invitrogen) was incubated with (I-4) (450 pmols) for 3 hrs at 10× excess prior to tryptic digestion. Iodoacetamide was used as the alkylating agent after compound incubation. […] For tryptic digests a 5 ul aliquot (7.5 pmols) was diluted with 15 ul of 0.1% TFA prior to micro C18 Zip Tipping directly onto the MALDI target using alpha cyano-4-hydroxy cinnamic acid as the matrix (5 mg/ml in 0.1% TFA:Acetonitrile 50:50).
For tryptic digests the instrument was set in Reflectron mode with a pulsed extraction setting of 1800. Calibration was done using the Laser Biolabs Pep Mix standard ([…], 1296.69, 1672.92, 2093.09, 2465.20). For CID/PSD analysis the peptide was selected using cursors to set ion gate timing and fragmentation occurred at a laser power about 20% higher and He was used as the collision gas for CID. Calibration for fragments was done using the P14R fragmentation calibration for the Curved field Reflectron.
TEC kinase (45 pmols; Invitrogen) was incubated with […] (450 pmols) for 3 hrs at 10× excess prior to tryptic digestion. […]

[2] = tested on: BTK signaling in Ramos cells; test: BTK Ramos cellular assay (phosphorylation of BTK substrate PLCγ2); type: cell-based, human; details: Homo sapiens, 1 hour compound, anti-IgM stimulation, read-out: BTK Inhibition (Ramos cellular)
Method in brief: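 Serum-starved Ramos Burkitt lymphoma cells treated 1 h with compound at 1, 0.1, 0.01 or 0.001 μM final. B-cell receptor stimulated with 1 μg anti-human IgM F(ab′)2, 10 min on ice. Lysates (16 μg protein) immunoblotted for phospho-PLCγ2.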

BTK = BTK (Homo sapiens (Human), UniProt Q06187); test: Mass spectrometry for BTK (intact protein); type: binding; details: 1 hr, 10× fold excess of compound
Sequence of BTK (Q06187 whole entry): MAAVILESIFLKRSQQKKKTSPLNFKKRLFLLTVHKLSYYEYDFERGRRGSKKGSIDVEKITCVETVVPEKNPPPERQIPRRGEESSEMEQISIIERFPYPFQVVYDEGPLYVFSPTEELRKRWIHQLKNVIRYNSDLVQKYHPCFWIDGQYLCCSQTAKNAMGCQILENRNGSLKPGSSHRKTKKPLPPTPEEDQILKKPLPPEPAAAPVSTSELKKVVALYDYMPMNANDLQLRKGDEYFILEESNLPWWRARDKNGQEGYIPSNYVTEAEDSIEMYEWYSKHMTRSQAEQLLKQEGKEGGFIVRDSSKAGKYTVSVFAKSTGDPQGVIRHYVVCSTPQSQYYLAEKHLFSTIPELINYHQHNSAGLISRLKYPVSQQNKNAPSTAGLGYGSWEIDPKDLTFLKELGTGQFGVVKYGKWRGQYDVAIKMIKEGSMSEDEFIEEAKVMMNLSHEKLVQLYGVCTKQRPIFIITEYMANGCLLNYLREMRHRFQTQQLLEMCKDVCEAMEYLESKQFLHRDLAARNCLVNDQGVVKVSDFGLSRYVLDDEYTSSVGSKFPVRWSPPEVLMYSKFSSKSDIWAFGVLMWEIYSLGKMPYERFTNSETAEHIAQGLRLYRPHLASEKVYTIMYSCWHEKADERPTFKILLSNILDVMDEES
Protocol: Mass Spectrometry for BTK
Intact BTK was incubated for 1 hr at a 10× fold excess of I-7 to protein. Aliquots (2 μl) of the samples were diluted with 10 μl of 0.1% TFA prior to micro C4 ZipTipping directly onto the MALDI target using Sinapinic acid as the desorption matrix (10 mg/ml in 0.1% TFA:Acetonitrile 20:80).

BTK in Ramos cells [3] = target: T1, BTK in Ramos cells (Homo sapiens (Human), UniProt Q06187); test: Washout experiment with I-7 and probe compound I-215 in Ramos cells; type: cell-based; details: 0.1 μM, 1 hour, then washout
T1 sequence (Q06187 whole entry): as above
Protocol: Washout Experiment with I-7 and Probe Compound I-215
Ramos cells were incubated with 0.1 μM I-7 or a reversible BTK inhibitor control compound in serum free media for 1 hour at 37° C. The cells were then washed in compound-free media and lysed 0, 4, 6, or 8 hours after compound removal. Cell lysates were incubated with 1 μM I-215 for 1 hour at room temperature, then overnight at 4° C. with streptavidin-coupled agarose beads. Protein was boiled off the beads and BTK association was assessed by western blot. […] In contrast, with the reversible inhibitor control, 45% of BTK protein is unbound and available to the probe at 0 hours and by 4 hours 100% of BTK protein is unbound and available to bind the probe. All samples were normalized to the DMSO-treated cells harvested at 0 hours.

JAK3 kinase = JAK3 kinase (Homo sapiens (Human), UniProt P52333); test: Mass spectrometry for Janus-3 kinase (JAK3); type: binding; details: 3 hrs at 10× excess, tryptic digestion
Sequence of JAK3 kinase (P52333 whole entry): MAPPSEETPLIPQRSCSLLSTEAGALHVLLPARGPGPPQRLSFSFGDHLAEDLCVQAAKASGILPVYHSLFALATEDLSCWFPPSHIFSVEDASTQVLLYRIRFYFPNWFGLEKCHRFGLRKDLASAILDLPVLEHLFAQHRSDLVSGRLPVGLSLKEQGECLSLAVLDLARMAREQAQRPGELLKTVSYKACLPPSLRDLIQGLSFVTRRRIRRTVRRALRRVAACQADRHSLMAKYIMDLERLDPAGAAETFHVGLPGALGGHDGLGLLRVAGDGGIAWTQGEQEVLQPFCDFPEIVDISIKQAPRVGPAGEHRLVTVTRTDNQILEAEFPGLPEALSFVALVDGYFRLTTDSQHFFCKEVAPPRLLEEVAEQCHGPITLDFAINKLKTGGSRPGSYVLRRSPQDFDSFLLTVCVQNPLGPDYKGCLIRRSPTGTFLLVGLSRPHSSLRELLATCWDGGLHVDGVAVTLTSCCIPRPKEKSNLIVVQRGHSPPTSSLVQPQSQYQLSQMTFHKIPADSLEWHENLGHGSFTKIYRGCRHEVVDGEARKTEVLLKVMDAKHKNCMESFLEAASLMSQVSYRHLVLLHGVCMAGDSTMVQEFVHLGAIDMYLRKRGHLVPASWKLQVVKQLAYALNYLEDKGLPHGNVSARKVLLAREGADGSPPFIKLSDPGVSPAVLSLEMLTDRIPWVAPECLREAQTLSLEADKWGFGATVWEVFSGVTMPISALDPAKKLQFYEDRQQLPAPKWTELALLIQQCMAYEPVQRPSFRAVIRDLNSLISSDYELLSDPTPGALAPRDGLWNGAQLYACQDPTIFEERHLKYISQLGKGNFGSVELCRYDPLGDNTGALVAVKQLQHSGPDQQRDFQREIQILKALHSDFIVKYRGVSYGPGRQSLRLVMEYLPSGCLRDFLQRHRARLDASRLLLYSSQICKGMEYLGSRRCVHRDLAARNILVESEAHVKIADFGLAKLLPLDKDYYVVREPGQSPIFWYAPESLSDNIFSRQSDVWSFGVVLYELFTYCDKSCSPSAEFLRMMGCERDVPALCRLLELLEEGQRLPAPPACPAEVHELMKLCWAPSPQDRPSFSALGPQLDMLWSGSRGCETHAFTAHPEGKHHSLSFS
Protocol: Mass Spectrometry for Janus-3 Kinase (JAK3)
JAK3 kinase (33 pmols; Invitrogen) was incubated with (I-7) (327 pmols) for 3 hrs at 10× excess prior to tryptic digestion. Iodoacetamide was used as the alkylating agent after compound incubation. For tryptic digests a 5 ul aliquot (5.5 pmols) was diluted with 15 ul of 0.1% TFA prior to micro C18 Zip Tipping directly onto the MALDI target using alpha cyano-4-hydroxy cinnamic acid as the matrix (5 mg/ml in 0.1% TFA:Acetonitrile 50:50).
as §1

BTK in Ramos cells [4] = target: T1, BTK in Ramos cells; test: BTK occupancy from in vitro samples by ELISA (Ramos cells); type: cell-based; details: ELISA with probe I-215
Description: Measuring BTK Occupancy from In Vitro Samples by ELISA
In order to determine the amount of free BTK in cell or tissue lysates, an ELISA protocol was employed that utilizes a biotinylated probe compound that binds only to free, unoccupied BTK. The conjugated biotin is captured on a streptavidin-coated ELISA plate and detected with a mouse anti-BTK antibody (Becton Dickinson, Franklin Lakes, N.J., USA) and a secondary goat anti-mouse HRP antibody (Zymed, South San Francisco, Calif., USA).
All samples were prepared with equal concentrations of Biorad lysis buffer (Hercules, Calif., USA), 0.5% bovine serum albumin in PBS with 0.05% Tween-20 to give a final concentration of 1 μM I-215. Samples were incubated in a mixing plate for 1 hr at room temperature while shaking to allow probe compound I-215 to bind to free BTK. After incubation with I-215, samples were added to a washed, streptavidin-coated ELISA plate (Pierce, Rockford, Ill., USA) and incubated for 1 hr at room temperature while shaking. The plate was then washed with PBS containing 0.05% Tween-20 using an automatic plate washer. Anti-BTK antibody was prepared at 1:1000 dilution in 0.5% BSA in PBS (0.05% Tween-20) and added to the ELISA plate. The plate was incubated for 1 hr at room temperature while shaking. The plate was washed as described above and the secondary HRP antibody was prepared at 1:5000 dilution in 0.5% BSA in PBS (0.05% Tween-20). The plate was incubated and washed as described above. TMB was added to the plate, and OD650 was monitored until reaching 1 OD unit. The reaction was then stopped with addition of H2SO4. The plate was analyzed using Gen 5 software, and a 4 Parameter Logistic curve was employed to quantitate samples. Recombinant BTK (Invitrogen, Carlsbad, Calif., USA) was used for the standard curve.
A concentration designated as “A” is greater than 1 nM; a concentration designated as “B” is greater than 10 nM; and a concentration designated as “C” is greater than 50 nM.

C=CC(=O)Nc1cccc(Nc2ncc(C)c(Nc3cccc(C)c3)n2)c1 [Compound I-2, N-(3-(5-methyl-4-(m-tolylamino)pyrimidin-2-ylamino)phenyl) acrylamide] was tested, and the “BTK Inhibition Type” value [1] was “irreversible” and the “covalent modification of TEC kinase peptide GCLLNFLR by mass spectrometry” value (from here on “covalent modification”) (TEC kinase) was “reaction was complete”.
In the case of Cc1cccc(Nc2nc(Nc3cccc(NC(=O)/C=C/CN(C)C)c3)ncc2F)c1 [Compound I-4, (E)-4-(dimethylamino)-N-(3-(5-fluoro-4-(m-tolylamino)pyrimidin-2-ylamino)phenyl)but-2-enamide], the “BTK Inhibition Type” value [1] is reported as “irreversible”, the IC50 [2] is reported as 0.01 to 0.1 µM and the “covalent modification” value (TEC kinase) is reported as “reaction was complete”.
C=CC(=O)Nc1cccc(Nc2nc(Nc3ccccc3)ncc2C)c1 [Compound I-7, N-(3-(5-methyl-2-(phenylamino)pyrimidin-4-ylamino)phenyl) acrylamide] was tested, and the “BTK Inhibition Type” value [1] was “irreversible”, the “modification of BTK by mass spectrometry” value (BTK) was “complete modification” and the IC50 [2] was under 0.01 µM. The “time BTK protein remains occupied after compound removal” value (BTK in Ramos cells [3]) was “over 8 hours”, the “modification of JAK3 kinase by mass spectrometry” value (JAK3 kinase) was “not entirely complete” and the “>50% occupancy (concentration)” value (BTK in Ramos cells [4]) was “A (greater than 1 nM)”. For the same compound, the “>90% occupancy (concentration)” value (BTK in Ramos cells [4]) was “B (greater than 10 nM)” and the “covalent modification” value (TEC kinase) was “reaction was complete”.
In the case of Cc1cnc(Nc2cccc(S(N)(=O)=O)c2)nc1Nc1ccc2c(c1)CCN(C(=O)CCl)C2 [Compound I-11, 3-(4-(2-(2-chloroacetyl)-1,2,3,4-tetrahydroisoquinolin-6-ylamino)-5-methylpyrimidin-2-ylamino)benzenesulfonamide], the “modification of JAK3 kinase by mass spectrometry” value (JAK3 kinase) is reported as “measurable modification”.
For C=CC(=O)Nc1cccc(Nc2nc(Nc3ccc(OCCOC)c(F)c3)ncc2F)c1 [Compound I-96, N-(3-(2-(3-fluoro-4-(2-methoxyethoxy)phenylamino)-5-fluoropyrimidin-4-ylamino)phenyl)acrylamide], the “modification of BTK by mass spectrometry” value (BTK) was “completely modify”, the IC50 [2] was under 0.01 µM and the “>50% occupancy (concentration)” value (BTK in Ramos cells [4]) was “A (greater than 1 nM)”. For the same compound, the “>90% occupancy (concentration)” value (BTK in Ramos cells [4]) was “B (greater than 10 nM)”.
